The text below walks through data of patent US6818228B1 (priority 1996, dated 2004).

The conditions of data set [1]: B.E.T.
For data set [2] the following is noted: helium displacement.
Data set [3] can be described thus: Bulk density (tapped cylinder). Conditions: nearly dry material before granulation.

Turning to `O.O.O.O.O=C([O-])CC(O)(CC(=O)[O-])C(=O)[O-].O=C([O-])CC(O)(CC(=O)[O-])C(=O)[O-].[Ca+2].[Ca+2].[Ca+2]` [Pfizer calcium citrate tetrahydrate, calcium citrate tetrahydrate], the surface area result in data set [1] is given as “about 10 m^2/g”. In data set [2], the true density result is listed as “about 2.0 g/cc”.
As for `O=C([O-])CC(O)(CC(=O)[O-])C(=O)[O-].O=C([O-])CC(O)(CC(=O)[O-])C(=O)[O-].[Ca+2].[Ca+2].[Ca+2]` [calcium citrate], the “surface area as fraction of that of commercial calcium citrate tetrahydrate” value in data set [1] was 1/10. In data set [3], the “density (bulk)” value was 1.1-1.2 g/cc.
